Results on 5 compounds are retold here after US7045532B2 (Millennium Pharmaceuticals, Inc., priority 1999, dated 2006).

This experiment addresses T1, ACE-2 (Homo sapiens, UniProt Q9BYF1).
T1 construct: a stop codon inserted after the serine immediately preceding the transmembrane domain; made in house; host or cells: CHO K1 cells (transient transfection, purified from conditioned medium)
Nature of the experiment: ACE-2 Competitive Substrate Assay (ACS Assay). Type of experiment: biochemical.

Setting [1] is: Ki class per key, compounds tested in 5% DMSO, 12 compound concentrations, 25° C., Ki=Kiapp/(1+[S]/Km), read-out: Human ACE-2 Activity.
The mark [2] stands for this setting: Table 3, very good ACE-2 inhibiting compounds, species not given, read-out: ACE-2 Activity, Ki.

SMILES strings stand for the structures. Like-named read-outs stand apart in the source and are kept apart here. A value given as a limit tells only on which side of the number the result lay.

T1 sequence (Q9BYF1 18-740 limits assumed): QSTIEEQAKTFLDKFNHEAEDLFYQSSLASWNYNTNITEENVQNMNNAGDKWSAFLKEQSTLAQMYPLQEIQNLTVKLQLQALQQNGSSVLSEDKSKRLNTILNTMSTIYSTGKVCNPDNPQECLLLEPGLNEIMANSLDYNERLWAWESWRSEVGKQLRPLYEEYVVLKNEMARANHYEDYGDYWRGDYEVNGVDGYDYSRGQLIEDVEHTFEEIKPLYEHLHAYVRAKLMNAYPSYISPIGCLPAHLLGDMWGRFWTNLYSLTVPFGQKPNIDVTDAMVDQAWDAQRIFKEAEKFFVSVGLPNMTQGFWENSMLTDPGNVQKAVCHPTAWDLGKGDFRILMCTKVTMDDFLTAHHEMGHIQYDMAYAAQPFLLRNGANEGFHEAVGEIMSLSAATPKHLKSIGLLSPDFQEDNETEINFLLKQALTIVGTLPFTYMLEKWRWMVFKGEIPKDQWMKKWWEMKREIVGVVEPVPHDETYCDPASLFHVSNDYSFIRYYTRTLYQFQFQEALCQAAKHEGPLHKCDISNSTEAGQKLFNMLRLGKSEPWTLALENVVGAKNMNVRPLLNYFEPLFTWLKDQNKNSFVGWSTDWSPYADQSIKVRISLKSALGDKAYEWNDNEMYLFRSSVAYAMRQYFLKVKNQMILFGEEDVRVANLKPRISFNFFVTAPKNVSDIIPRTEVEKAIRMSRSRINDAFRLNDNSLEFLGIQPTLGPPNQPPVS

`CC(C)C[C@H](N[C@@H](Cc1ccc(C(=O)O)n1Cc1cc(Cl)cc(Cl)c1)C(=O)O)C(=O)O` [QY, 5-[2-Carboxy-2-(1-carboxy-3-methyl-butylamino)-ethyl]-1-(3,5-dichloro-benzyl)-1H-pyrrole-2-carboxylic acid]: the Ki runs as follows: under setting [1], < 100 nM; under setting [2], < 50 nM.

As for `CC(C)C[C@H](N[C@@H](Cc1ccc(C(=O)C(F)(F)F)n1CCC1CCCCC1)C(=O)O)C(=O)O` [QZ, 2-[1-Carboxy-2-[1-(2-cyclohexyl-ethyl)-5-(2,2,2-trifluoro-acetyl)-1H-pyrrol-2-yl]-ethylamino]-4-methylpentanoic acid], the Ki runs as follows: under setting [1], < 100 nM; under setting [2], < 50 nM.

As for `CC(C)C[C@H](N[C@@H](Cc1ccc([N+](=O)O)cc1)C(=O)O)C(=O)O` [RA, 2-[1-Carboxy-2-(4-nitro-phenyl)-ethylamino]-4-methyl-pentanoic acid], the Ki under setting [1] was 100 to 500 nM.

In the case of `COc1ccccc1C(=O)Nc1ccc(C[C@H](N[C@@H](CC(C)C)C(=O)O)C(=O)O)cc1` [RB, 2-[1-Carboxy-2-[4-(2-methoxy-benzoylamino)-phenyl]-ethylamino]-4-methyl-pentanoic acid], the Ki under setting [1] was < 100 nM and the Ki under setting [2] was < 50 nM.

Consider `CC(C)C[C@H](N[C@@H](Cc1ccc(N(Cc2cc(F)cc(F)c2)Cc2cc(F)cc(F)c2)cc1)C(=O)O)C(=O)O` [RD, 2-(2-(4-[Bis-(3,5-difluoro-benzyl)-amino]-phenyl)-1-carboxy-ethylamino)-4-methyl-pentanoic acid], for which, under setting [1], the Ki lay within 100 to 500 nM.
